Where “and” joins values, the source holds several entries; their conditions need not be identical. Identical values can stand only once.
Assays:
[1] = biological target: T1, Adrenergic α2A (Homo sapiens, UniProt P08913); assay: Radioligand binding assay, Adrenergic α2A
T1 construct: 203620
T1 sequence (P08913 1-465): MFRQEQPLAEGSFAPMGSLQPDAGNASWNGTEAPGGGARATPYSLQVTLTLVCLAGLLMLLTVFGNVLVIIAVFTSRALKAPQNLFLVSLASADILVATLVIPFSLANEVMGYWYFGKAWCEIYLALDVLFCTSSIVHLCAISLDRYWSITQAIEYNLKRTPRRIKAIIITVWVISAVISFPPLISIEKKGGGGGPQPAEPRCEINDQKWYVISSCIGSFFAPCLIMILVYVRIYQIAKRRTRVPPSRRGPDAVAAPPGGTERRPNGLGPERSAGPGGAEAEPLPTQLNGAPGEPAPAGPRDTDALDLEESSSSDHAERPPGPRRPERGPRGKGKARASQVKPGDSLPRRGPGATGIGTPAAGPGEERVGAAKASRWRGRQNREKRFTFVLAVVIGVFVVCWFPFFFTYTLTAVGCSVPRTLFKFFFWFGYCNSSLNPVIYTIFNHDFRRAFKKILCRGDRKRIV
From the text: (§1) . Table 1 provides data produced via a receptor binding assay and IC50 and Ki determination. […] In addition, the compound of formula (Ia) has a potent DAT inhibition, which is indicative of dopaminergic uptake inhibition and increased DA activity. In addition to the effect on SERT and DAT, the compound of formula (Ia) inhibited the transporter of Norepinephrine (NET), and several neurotransmitter's receptors like alpha2A and alpha2C receptors, alpha 1A and alphal C, 5HT2A and 5HT2C, signal histamine2 and dopamine D1. This specific profile is in line with the data on antidepressant, anxiolytic and moderate neuro-stimulation activity observed in the animal model studies.
(§2) With regard to the data provided in Table 1, the biochemical assay results are presented as the percent inhibition of specific binding or activity throughout the report. For primary assays, only the lowest concentration with a significant response judged by the assays’ criteria, is shown in this summary. […] Unless otherwise requested, primary screening in duplicate with quantitative data (e.g., IC50±SEM, Ki±SEM and nH) are shown.

[2] = biological target: T2, Adrenergic α2c (Homo sapiens, UniProt P18825); assay: Radioligand binding assay, Adrenergic α2c
T2 construct: 203800
T2 sequence (P18825 1-462): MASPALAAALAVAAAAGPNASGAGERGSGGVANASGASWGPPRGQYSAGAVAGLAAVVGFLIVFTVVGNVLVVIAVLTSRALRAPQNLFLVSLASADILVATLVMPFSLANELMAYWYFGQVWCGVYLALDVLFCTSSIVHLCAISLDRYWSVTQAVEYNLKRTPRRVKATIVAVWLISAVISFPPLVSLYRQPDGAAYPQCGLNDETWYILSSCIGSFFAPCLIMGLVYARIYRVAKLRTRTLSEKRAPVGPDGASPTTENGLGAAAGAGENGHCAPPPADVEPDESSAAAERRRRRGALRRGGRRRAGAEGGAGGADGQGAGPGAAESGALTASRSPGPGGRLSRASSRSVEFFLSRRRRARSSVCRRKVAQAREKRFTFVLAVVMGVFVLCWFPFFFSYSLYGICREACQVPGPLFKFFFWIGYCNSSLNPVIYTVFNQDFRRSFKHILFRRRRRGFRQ
From the text: as §1, §2

[3] = biological target: T3, Adrenergic α1D (Homo sapiens, UniProt P25100); assay: Radioligand binding assay, Adrenergic α1D
T3 sequence (P25100 1-572): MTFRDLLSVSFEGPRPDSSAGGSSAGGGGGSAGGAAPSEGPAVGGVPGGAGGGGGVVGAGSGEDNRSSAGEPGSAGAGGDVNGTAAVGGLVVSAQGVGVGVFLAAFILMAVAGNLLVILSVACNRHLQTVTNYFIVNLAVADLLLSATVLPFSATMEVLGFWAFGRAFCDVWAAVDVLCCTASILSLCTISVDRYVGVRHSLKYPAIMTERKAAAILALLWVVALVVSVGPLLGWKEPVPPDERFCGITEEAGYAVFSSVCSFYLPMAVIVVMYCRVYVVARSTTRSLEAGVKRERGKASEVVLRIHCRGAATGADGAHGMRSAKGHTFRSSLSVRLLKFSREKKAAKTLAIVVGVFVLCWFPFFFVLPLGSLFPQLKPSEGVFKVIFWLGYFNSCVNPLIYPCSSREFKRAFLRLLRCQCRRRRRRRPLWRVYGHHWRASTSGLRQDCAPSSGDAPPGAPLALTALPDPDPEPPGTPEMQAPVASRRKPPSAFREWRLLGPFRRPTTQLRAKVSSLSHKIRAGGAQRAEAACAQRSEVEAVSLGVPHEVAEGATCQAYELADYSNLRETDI
From the text: as §1, §2

[4] = biological target: Histamine H2 (Homo sapiens, UniProt P25021); assay: Radioligand binding assay, Histamine H2
Histamine H2, sequence (P25021 whole entry): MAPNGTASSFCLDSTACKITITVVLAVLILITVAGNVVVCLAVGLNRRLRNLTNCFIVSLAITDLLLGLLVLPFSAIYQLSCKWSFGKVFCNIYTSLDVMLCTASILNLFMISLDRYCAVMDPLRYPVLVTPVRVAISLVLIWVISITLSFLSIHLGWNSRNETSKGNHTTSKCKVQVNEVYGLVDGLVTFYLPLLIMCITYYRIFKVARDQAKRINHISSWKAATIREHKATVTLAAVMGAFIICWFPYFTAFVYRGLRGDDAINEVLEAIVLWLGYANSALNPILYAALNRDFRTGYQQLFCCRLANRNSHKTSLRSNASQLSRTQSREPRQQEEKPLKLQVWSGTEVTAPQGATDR
From the text: as §1, §2

[5] = test system: ICR mice; assay: Acute toxicity, oral administration; assay type: in vivo; conditions: for stimulation behavior (number of rearings): acute oral
Description: FIG. 11B illustrates the effect of administering the compound of formula (Ia) on stimulation in ICR mice.
Acute toxicity was assessed in male BALB/c mice that had been orally administered the compound of formula (Ta). The compound of formula (Ia) was administered orally to mice at doses of 20, 25, 75, and 100 mg/kg (4 animals/group). Animals were followed for behavioral changes such as stimulation (number of rearings), and sedation, after 24, 48 and 72 hr. Body weight was determined up to 7 days after drug administration.

[6] = test system: ICR male mice; assay: Subchronic ip administration (toxicity); assay type: in vivo; conditions: mouse, in vivo, ip, 30 mg/kg
From the text: […]. Except for this local irritation no other toxicity was noted.
[…]. […] Except of these local irritations no other toxicity was noted.

[7] = test system: BALBc male mice; assay: Hot plate test; assay type: in vivo; conditions: 10 mg/kg orally (sertraline equimolar)
From the text: The hot-plate test is widely used to measure pain sensation. The latency in response to heat of mice and rats feet is based on the method described by Eddy et al., Synthetic analgesics. II. […] The method is based on placing an animal on heated (52-56 C) surface and measuring the time to response (raising paw, licking of the paw, jumping or running.
The animals were followed for 6 hr.

[8] = test system: SHSY5Y cell-line; assay: Cell viability, neutral red method
From the text: Each point is the mean of a triplicate using the neutral red method for cell viability.

CN[C@H]1CC[C@@H](c2ccc(Cl)c(Cl)c2)c2ccc(C#CCCCO)cc21 [compound Ia, (1S-cis)-4-(3,4-dichlorophenyl)-7-(5-hydroxy-1-pentyn-1-yl)-1,2,3,4-tetrahydro-N-methyl-1-naphthalenamine hydroiodide]
IC50 [1]: 273 nM
nH [1]: 0.930
inhibition at 1 µM ([1]; 1 μM): 82%
Ki ([1]; read-out: K1): 102 nM
IC50 [2]: 1900 nM
nH [2]: 1.03
inhibition at 3 µM ([2]; 3 μM): 62%
Ki ([2]; read-out: K1): 276 nM
IC50 [3]: 2500 nM
nH [3]: 1.04
inhibition at 3 µM ([3]; 3 μM): 54%
Ki ([3]; read-out: K1): 1230 nM
IC50 [4]: 1560 nM
nH [4]: 1.37
inhibition at 3 µM ([4]; 3 μM): 70%
Ki ([4]; read-out: K1): 1280 nM
survival ([5]; acute oral up to 100 mg/kg): all animals survived
tolerability ([5]; acute oral up to 100 mg/kg): well tolerated
stimulation behavior (number of rearings) ([5]; 24 and 48hr after administration): significant increase
stimulation behavior (number of rearings) ([5]; after 72 hr): normalization
histopathology of heart, spleen, liver and kidney [6]: minimal to mild irritation
time after drug administration with significant effect on reaction to heating ([7]; followed for 6 hr, hydroiodide): 120 min and 240 min
latency to heat sensation ([7]; vs vehicle treated control): significantly increase
increase in cell viability compared to control vehicle treated cells ([8]; 1-5 μM, 24 and 48 hours incubation): 13-25%
effect on cell viability over concentration range ([8]; 1-50 μM, low concentrations neurotrophic, high concentrations apoptosis): biphasic effects
concentration of maximal neurotropic activity ([8]; concentration range 1-50 μM): 1 µM

Source: patent US20100130549A1, “PSYCHOTROPIC COMPOUNDS, COMPOSITIONS AND METHODS OF USE” (priority 2007, published 2010)
